Measurements taken from the supplement of paper PMC10627819.

Tests used:
[1] = tested on: S. pneumoniae D39V; assay: fitness (endpoint OD595 vs no drug) (fraction); higher = more growth
Outline: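 Fitness was measured as bacterial growth in 384-well plates inoculated at OD595 0.01 (30 µl, or 55 µl for S. pneumoniae). Media were TSB, LB Lennox or CY, at 37 °C. OD595 was read every 30 min for 14 h and background-subtracted against the first reading. Fitness is OD595 at the transition into stationary phase divided by the robust mean of no-drug control wells, capped at 1.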

[2] = tested on: B. subtilis 168; assay: Bliss interaction score (quartile over a dose matrix) (fitness difference); higher = more antagonism (negative = synergy)
Outline: (§1)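 The Bliss score was calculated by subtracting the expected fitness, the product of single-drug values, from the observed fitness. OD595 at entry into stationary phase, over the plate's robust no-drug mean and capped at 1, served as the fitness readout. Single-drug values were inferred from combination data, and scores are summarised by quartiles across technical, biological and donor/recipient replicates.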

[3] = tested on: S. aureus DSM 20231; assay: as above
Outline: as §1

[4] = tested on: S. aureus Newman; assay: as above
Outline: as §1

[5] = tested on: S. pneumoniae D39V; assay: as above
Outline: as §1
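Throughout, for Bliss interaction score (quartile over a dose matrix): first quartile when negative (synergy) and third quartile when positive (antagonism).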

CO/N=C(\C(=O)N[C@@H]1C(=O)N2C(C(=O)[O-])=C(C[N+]3(C)CCCC3)CS[C@H]12)c1csc(N)n1 [Cefepime] + C[C@H]1COc2c(N3CCN(C)CC3)c(F)cc3c(=O)c(C(=O)O)cn1c23 [Levofloxacin]
fitness, [1]
Conditions | partner 0.1725 µg/mL | partner 0.2 µg/mL | partner 0.345 µg/mL | partner 0.4 µg/mL | partner 0.69 µg/mL | partner 0.8 µg/mL
first compound 0.007 µg/mL | – | 0.996 | – | 0.951 | – | 0.779
first compound 0.0078 µg/mL | 0.991 | – | 0.937 | – | 0.727 | –
first compound 0.014 µg/mL | – | 0.993 | – | 0.963 | – | 0.768
first compound 0.0155 µg/mL | 0.928 | – | 0.924 | – | 0.62 | –
first compound 0.028 µg/mL | – | 0.935 | – | 0.861 | – | 0.516

Conditions | Bliss interaction score
[2] | 0.0275
[3] | 0.0646
[4] | 0.0639
[5] | 0.157

CO/N=C(\C(=O)N[C@@H]1C(=O)N2C(C(=O)[O-])=C(C[N+]3(C)CCCC3)CS[C@H]12)c1csc(N)n1 [Cefepime] + Clc1ccc(COC(Cn2ccnc2)c2ccc(Cl)cc2Cl)c(Cl)c1 [Miconazole]
[1]
Conditions | fitness
first compound 0.007 µg/mL, partner 1.25 µg/mL | 0.985
first compound 0.007 µg/mL, partner 2.5 µg/mL | 0.982
first compound 0.007 µg/mL, partner 5 µg/mL | 0.965
first compound 0.0078 µg/mL, partner 1.073 µg/mL | ≥ 1
first compound 0.0078 µg/mL, partner 2.145 µg/mL | ≥ 1
first compound 0.0078 µg/mL, partner 4.29 µg/mL | 0.948
first compound 0.014 µg/mL, partner 1.25 µg/mL | 0.934
first compound 0.014 µg/mL, partner 2.5 µg/mL | 0.969
first compound 0.014 µg/mL, partner 5 µg/mL | 0.943
first compound 0.0155 µg/mL, partner 1.073 µg/mL | 0.995
first compound 0.0155 µg/mL, partner 2.145 µg/mL | 0.851
first compound 0.0155 µg/mL, partner 4.29 µg/mL | 0.848
first compound 0.028 µg/mL, partner 1.25 µg/mL | 0.87
first compound 0.028 µg/mL, partner 2.5 µg/mL | 0.872
first compound 0.028 µg/mL, partner 5 µg/mL | 0.861
first compound 0.031 µg/mL, partner 4.29 µg/mL | 0.491

Conditions | Bliss interaction score
[2] | 0.0393
[3] | -0.109
[4] | -0.0643
[5] | 0.0753

CO/N=C(\C(=O)N[C@@H]1C(=O)N2C(C(=O)[O-])=C(C[N+]3(C)CCCC3)CS[C@H]12)c1csc(N)n1 [Cefepime] + O=C1CN(/N=C/c2ccc([N+](=O)[O-])o2)C(=O)N1 [Nitrofurantoin]
fitness, [1]
Conditions | first compound 0.007 µg/mL | first compound 0.0078 µg/mL | first compound 0.014 µg/mL | first compound 0.0155 µg/mL | first compound 0.028 µg/mL | first compound 0.031 µg/mL
partner 1.285 µg/mL | – | 0.957 | – | 0.943 | – | 0.811
partner 2 µg/mL | 0.988 | – | 0.979 | – | 0.912 | –
partner 2.57 µg/mL | – | 0.962 | – | 0.942 | – | 0.738
partner 4 µg/mL | 0.991 | – | 0.955 | – | 0.887 | –
partner 8 µg/mL | 0.949 | – | 0.927 | – | 0.843 | –

[1], partner 5.14 µg/mL, one replicate
Conditions | fitness
first compound 0.0078 µg/mL | 0.959
first compound 0.0155 µg/mL | 0.993
first compound 0.031 µg/mL | 0.825

Conditions | Bliss interaction score
[2] | -0.125
[3] | 0.0422
[4] | 0.0549
[5] | 0.188

CCCCCCCCCC(=O)N[C@@H](Cc1c[nH]c2ccccc12)C(=O)N[C@H](CC(N)=O)C(=O)N[C@@H](CC(=O)O)C(=O)N[C@@H]1C(=O)NCC(=O)N[C@@H](CCCN)C(=O)N[C@@H](CC(=O)O)C(=O)N[C@H](C)C(=O)N[C@@H](CC(=O)O)C(=O)NCC(=O)N[C@H](CO)C(=O)N[C@@H]([C@H](C)CC(=O)O)C(=O)N[C@@H](CC(=O)c2ccccc2N)C(=O)O[C@@H]1C [Daptomycin] + CO[C@H]1/C=C/O[C@@]2(C)Oc3c(C)c(O)c4c(O)c(c(/C=N/N5CCN(C)CC5)c(O)c4c3C2=O)NC(=O)/C(C)=C\C=C\[C@H](C)[C@H](O)[C@@H](C)[C@@H](O)[C@@H](C)[C@H](OC(C)=O)[C@@H]1C [Rifampicin]
fitness, [1]
Conditions | first compound 1 µg/mL | first compound 2 µg/mL | first compound 4 µg/mL
partner 0.025 µg/mL | 0.978 | ≥ 1 | ≥ 1
partner 0.05 µg/mL | 0.823 | 0.864 | 0.926
partner 0.1 µg/mL | 0.262 | 0.271 | –

[1], partner 0.2 µg/mL, one replicate
Conditions | fitness
first compound 1 µg/mL | 0
first compound 2 µg/mL | 0
first compound 4 µg/mL | 0

Conditions | Bliss interaction score
[2] | -0.0667
[3] | -0.0427
[4] | 0.0195
[5] | 0.104

CCCCCCCCCC(=O)N[C@@H](Cc1c[nH]c2ccccc12)C(=O)N[C@H](CC(N)=O)C(=O)N[C@@H](CC(=O)O)C(=O)N[C@@H]1C(=O)NCC(=O)N[C@@H](CCCN)C(=O)N[C@@H](CC(=O)O)C(=O)N[C@H](C)C(=O)N[C@@H](CC(=O)O)C(=O)NCC(=O)N[C@H](CO)C(=O)N[C@@H]([C@H](C)CC(=O)O)C(=O)N[C@@H](CC(=O)c2ccccc2N)C(=O)O[C@@H]1C [Daptomycin] + C[C@@H](O)[C@H]1C(=O)N2C(C(=O)O)=C(SCCNC=N)C[C@H]12 [Imipenem]
fitness, [1]
Conditions | partner 0.005 µg/mL | partner 0.0065 µg/mL | partner 0.01 µg/mL | partner 0.013 µg/mL | partner 0.02 µg/mL | partner 0.026 µg/mL
first compound 1 µg/mL | 0.962 | 0.886 | 0.986 | 0.808 | 0.935 | 0.716
first compound 2 µg/mL | 0.979 | 0.895 | 0.931 | 0.837 | 0.989 | 0.843
first compound 4 µg/mL | 0.902 | 0.93 | 0.884 | 0.947 | 0.897 | 0.887

Conditions | Bliss interaction score
[2] | -0.0985
[3] | 0.0417
[4] | 0.0265
[5] | 0.0763
